Reference: patent US10780101B2, “Amide derivatives of squalamine for the treatment of infections” (VIRBAC, priority 2016, dated 2020)
In brackets after ≈: the same amount, converted by molar mass. Read-outs that look alike come from different tables or passages of the source.

Experiments:
E. coli Human ATCC 28922 = test: MIC determination, E. coli human ATCC 28922; type: cell-based; conditions: Escherichia coli, ATCC28922; Gram-negative; Mueller-Hinton medium, 24 h at 37° C.
How it was run: (§1)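 Strains, thawed from −80 °C glycerol stocks, are grown in Mueller-Hinton medium and seeded at OD 0.01 per well. Test compounds, prepared at 5 mg/mL in DMSO/methanol 50/50, are serially diluted by half. After 24 h at 37 °C, turbidity at 620 nm gives the MIC.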

C. albicans = test: Antifungal activity, cascade microdilution; type: cell-based; conditions: Candida albicans, 24 h, read-out: IC50 (μg/mL) C. albicans
[1] = test system: P. aeruginosa Animal (1051575); test: MIC determination, P. aeruginosa animal (1051575); type: cell-based; conditions: Pseudomonas aeruginosa; Gram-negative; Mueller-Hinton medium, 24 h at 37° C.
How it was run: as §1

[2] = test system: P. aeruginosa Human ATCC 27853; test: MIC determination, P. aeruginosa human ATCC 27853; type: cell-based; conditions: Pseudomonas aeruginosa, ATCC27853; Gram-negative; Mueller-Hinton medium, 24 h at 37° C.
How it was run: as §1

[3] = test system: E. faecalis Human ATCC 29212; test: MIC determination, E. faecalis human ATCC 29212; type: cell-based; conditions: Enterococcus faecalis, ATCC29212; Gram-positive; Mueller-Hinton medium, 24 h at 37° C.
How it was run: as §1

S. aureus Animal (340) = test: MIC determination, S. aureus animal (340); type: cell-based; conditions: Staphylococcus aureus; Gram-positive; Mueller-Hinton medium, 24 h at 37° C.
How it was run: as §1

[4] = test system: S. aureus Human ATCC 25923; test: MIC determination, S. aureus human ATCC 25923; type: cell-based; conditions: Staphylococcus aureus, ATCC25923; Gram-positive; Mueller-Hinton medium, 24 h at 37° C.
How it was run: as §1

[5] = test system: S. intermedius Animal (1051997); test: MIC determination, S. intermedius animal (1051997); type: cell-based; conditions: Staphylococcus intermedius; Gram-positive; Mueller-Hinton medium, 24 h at 37° C.
How it was run: as §1

P. aeruginosa (1051575) [6] = test: Potentiation of doxycycline activity (combination MIC); type: cell-based, Pseudomonas aeruginosa; conditions: in presence of doxycycline 2 μg/mL; 24 hours at 37° C.
E. coli Animal (1956) = test: MIC determination, E. coli animal (1956); type: cell-based; conditions: Escherichia coli; Gram-negative; Mueller-Hinton medium, 24 h at 37° C.
How it was run: as §1

CHO-K1 cells = test: WST1 cytotoxicity test on CHO-K1 cells; type: cell-based, Chinese hamster; conditions: Cricetulus griseus
How it was run: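 CHO-K1 cells pre-grown 24 h, then exposed to increasing compound concentrations in duplicate for 24 h at 37° C, 5% CO2. Viability read after 20 min with 10% WST-1 in PBS at 450 nm; IC50 from nonlinear regression as concentration cutting viability 50%.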

P. aeruginosa (1051575) [7] = test: Potentiation of erythromycin activity (combination MIC); type: cell-based, Pseudomonas aeruginosa; conditions: erythromycin 2 μg/mL; concentration of compound required to restore antibiotic activity
Method: (§2) This method requires the use of a 96-well plate: 100 μL of a liquid culture medium are placed in each well and then seeded with the microbial suspension prepared previously. The required volume to be seeded is calculated for an OD of 0.01, which corresponds to about 5×10^6 bacteria in each well. In this plate, the first line corresponds to a negative control (200 μL of sterile culture medium in each well), the second line corresponds to a positive control (100 μL of sterile culture medium+100 μL of the bacterial suspension), and the third line contains 192 μL of culture medium; 8 μL of compound of formula (I) to be tested are placed in each well. Thereafter, a cascade dilution is performed from this line. L of a doxycycline solution (1 mg dissolved in 20 mL) are then added to each well of lines 3 to 8 to obtain a final antibiotic concentration of 2 μg/mL. 92 μL of bacterial suspension are then added to lines 3 to 8. The results are read (the determination of the MIC (2 μg/mL of doxycycline) in the presence of X g/mL of compound of formula (I)) after 24 hours of incubation at 37° C. under a humid atmosphere. After 24 hours of incubation at 37° C., 40 μL of nitro tetrazolium iodide are added to each well to reveal the presence of live bacteria by staining the medium pink.
The procedure is identical to that indicated in Example 5 above. 8 μL of an antibiotic solution under consideration (1 mg dissolved in 20 mL) are added to obtain a final antibiotic concentration of 2 μg/mL instead of 8 μL of a doxycycline solution.
(§3) The results are given in table V. They indicate the concentration of compound of formula (I) required to be able to restore the activity of the antibiotic under consideration.

P. aeruginosa (1051575) [8] = test: Potentiation of chloramphenicol activity (combination MIC); type: cell-based, Pseudomonas aeruginosa; conditions: chloramphenicol 2 μg/mL; concentration of compound required to restore antibiotic activity
Method: as §2, with “L of a doxycycline solution (1 mg dissolved in 20 mL) are then added to each well of lines 3 to 8 to obtain a final antibiotic concentration of 2 μg/mL.” left out
The procedure is identical to that indicated in Example 5 above. […]
as §3

[9] = CHO-K1, 24 h, read-out: IC50 (μg/mL) CHO
[10] = CHO-K1, read-out: IC50 (μg/mL) CHO

SMILES	MIC (E. coli Human ATCC 28922)	IC50 (C. albicans)	MIC [1]	MIC [2]	MIC [3]	MIC (S. aureus Animal (340))	MIC [4]	MIC [5]	MIC - P. aeruginosa (1051575): content of compound of formula (I) to restore the doxycycline activity (at 2 μg/mL) (P. aeruginosa (1051575) [6])	MIC (E. coli Animal (1956))	IC50 (CHO-K1 cells; [9])	IC50 (CHO-K1 cells; [10])	MIC P. aeruginosa (1051575) compound + erythromycin (P. aeruginosa (1051575) [7])	MIC P. aeruginosa (1051575) compound + chloramphenicol (P. aeruginosa (1051575) [8])
CC(C)N(C(=O)CC[C@@H](C)[C@H]1CCC2C3C(CC[C@@]21C)[C@@]1(C)CC[C@H](NCCCN(CCCN)CCCN)CC1C[C@H]3O)C(C)C (stereo partly drawn) [(56), 3β-(tris(3-aminopropyl)amine)-N,N-diisopropylchenodeoxycholamide]	65 µg/mL (≈ 101 µM)	4 µg/mL (≈ 6.19 µM)	65 µg/mL (≈ 101 µM)	130 µg/mL (≈ 201 µM)	2 µg/mL (≈ 3.1 µM)	4 µg/mL (≈ 6.19 µM)	4 µg/mL (≈ 6.19 µM)	4 µg/mL (≈ 6.19 µM)	2 µg/mL	16 µg/mL (≈ 24.8 µM)				
CC(C)NC(=O)CC[C@@H](C)[C@H]1CCC2C3C(CC[C@@]21C)[C@@]1(C)CC[C@H](NCCCNCCCCNCCCN)CC1C[C@H]3O (stereo partly drawn) [Compound (32), 3β-spermino-N-isopropylchenodeoxycholamide]	15 µg/mL (≈ 24.3 µM)	2 µg/mL (≈ 3.24 µM)	15 µg/mL (≈ 24.3 µM)	30 µg/mL (≈ 48.5 µM)	7 µg/mL (≈ 11.3 µM)	2 µg/mL (≈ 3.24 µM)	7 µg/mL (≈ 11.3 µM)	0.5 µg/mL (≈ 0.809 µM)	1 µg/mL	31 µg/mL (≈ 50.2 µM)	34 µg/mL (≈ 55 µM)	13 µg/mL (≈ 21 µM)		
CC(C)NC(=O)CC[C@@H](C)[C@H]1CCC2C3C(C[C@H](O)[C@@]21C)[C@@]1(C)CC[C@H](NCCCNCCCNCCCN)CC1C[C@H]3O (stereo partly drawn) [(4), 3β-norspermino-N-isopropylcholamide]	16 µg/mL (≈ 25.8 µM)	8 µg/mL (≈ 12.9 µM)	32 µg/mL (≈ 51.6 µM)	64 µg/mL (≈ 103 µM)	32 µg/mL (≈ 51.6 µM)	16 µg/mL (≈ 25.8 µM)	8 µg/mL (≈ 12.9 µM)	4 µg/mL (≈ 6.45 µM)	1 µg/mL	32 µg/mL (≈ 51.6 µM)	65 µg/mL (≈ 105 µM)	170 µg/mL (≈ 274 µM)		
CC(C)NC(=O)CC[C@@H](C)[C@H]1CCC2C3C(CC[C@@]21C)[C@@]1(C)CC[C@H](NCCN(CCN)CCN)CC1C[C@H]3O (stereo partly drawn) [(45), 3β-(tris(2-aminoethyl)amine)-N-isopropylchenodeoxycholamide]	110 µg/mL (≈ 196 µM)		28 µg/mL (≈ 49.8 µM)	110 µg/mL (≈ 196 µM)	14 µg/mL (≈ 24.9 µM)	4 µg/mL (≈ 7.12 µM)	7 µg/mL (≈ 12.5 µM)	2 µg/mL (≈ 3.56 µM)	7 µg/mL	14 µg/mL (≈ 24.9 µM)	60 µg/mL (≈ 107 µM)		28 µg/mL	7 µg/mL
CC(C)NC(=O)CC[C@@H](C)[C@H]1CCC2C3CCC4C[C@@H](NCCCN(CCCN)CCCN)CC[C@]4(C)C3CC[C@@]21C (stereo partly drawn) [(49), 3β-(tris(3-aminopropyl)amine)-N-isopropyllithocholamide]	120 µg/mL (≈ 204 µM)		60 µg/mL (≈ 102 µM)	120 µg/mL (≈ 204 µM)	15 µg/mL (≈ 25.5 µM)	4 µg/mL (≈ 6.8 µM)	4 µg/mL (≈ 6.8 µM)	2 µg/mL (≈ 3.4 µM)	4 µg/mL	30 µg/mL (≈ 51 µM)	6 µg/mL (≈ 10.2 µM)		30 µg/mL	4 µg/mL
